Solubility data for 1 molecule are collected here from patent US9351940B2, “Nanoparticles comprising esters of poly (methyl vinyl ether-co-maleic anhydride) and uses thereof” (priority 2011, dated 2016).

Values after ≈ are worked out from the molar mass of the structure shown.

This data set in a line: Water solubility of KTZ in aqueous suspension without polymer. The class given is physicochemical. The note with it: kinetic from dmso stock, aqueous suspension after precipitation from alcoholic solution, no polymer.

Method: The selection of the appropriate Ketoconazole:polymer ratio (w/w) which is needed to dissolve drug crystals and to obtain homogeneous nanoparticles free from drug crystals was firstly optimized. For that purpose, 200 mg of KTZ were resuspended in different volumes of both absolute ethanol (10, 15 and 20 mL) as control solution or in the same volumes of GANTREZ® ES 425 ethanolic solution (50 mg/mL). GANTREZ® ES nanoparticles were produced by the addition of the corresponding volume of bidistilled water (2:1 (v/v) water/polymer solution) to GANTREZ® ES alcoholic solutions containing KTZ. […] Finally, the aqueous suspensions of KTZ-loaded GANTREZ® ES nanoparticles and KTZ aqueous suspension without the polymer were collected for further characterization and drug content quantification.
The amount of encapsulated drug in the nanoparticles was assayed by UV spectrophotometry at 257 nm (Shimadzu 1203 UV-VIS). In order to quantify the amount of KTZ in the nanoparticles suspension or free KTZ suspension without the polymer GANTREZ® ES), all samples of fleshly prepared formulations were evaporated under reduced pressure to eliminate ethanol, and then 1 mL of triplicate samples were centrifuged at 20,000 rpm for 25 min. […]

For the molecule `CC(=O)N1CCN(c2ccc(OCC3COC(Cn4ccnc4)(c4ccc(Cl)cc4Cl)O3)cc2)CC1` (stereo not shown) [KTZ, Ketoconazole], the solubility (as a rule, the dissolved amount per volume that the medium holds) is roughly 11 µg/mL (≈ 20.7 µM).
